Experimental findings from ChEMBL document CHEMBL3596148, “Meridianin derivatives as potent Dyrk1A inhibitors and neuroprotective agents” (Bioorg Med Chem Lett, 2015) are described below.

The term pIC50 denotes the negative decadic logarithm of the IC50, by convention in mol/L. A word on the inhibition: it is the change of the read-out against control, counted positive when it falls. A higher inhibition goes with a strong effect.

pIC50: −log10 of the molar value. Some results are limits rather than exact numbers.

Data set [1] can be described thus: Cytotoxicity against human SH-SY5Y cells assessed as cell viability at 30 uM after 24 hrs by MTT assay relative to control. The conditions noted are these: read-out: Activity. It counts as cell-based. For orientation: Tetrazolium dyes change colour on reduction, which living cells bring about.
The test system of data set [2] is SH-SY5Y. Briefly: Neuroprotective activity against glutamate-induced neurotoxicity in human SH-SY5Y cells assessed as cell viability at 50 uM incubated for 30 mins prior to glutamate challenge measured after 24 hrs by MTT assay (reference value: 73.8 +/- 4.5%). It counts as functional. The conditions noted are these: read-out: Activity.
Data set [3] addresses T1, Dual specificity tyrosine-phosphorylation-regulated kinase 3 (Homo sapiens, UniProt O43781).
T1 sequence (O43781 whole entry): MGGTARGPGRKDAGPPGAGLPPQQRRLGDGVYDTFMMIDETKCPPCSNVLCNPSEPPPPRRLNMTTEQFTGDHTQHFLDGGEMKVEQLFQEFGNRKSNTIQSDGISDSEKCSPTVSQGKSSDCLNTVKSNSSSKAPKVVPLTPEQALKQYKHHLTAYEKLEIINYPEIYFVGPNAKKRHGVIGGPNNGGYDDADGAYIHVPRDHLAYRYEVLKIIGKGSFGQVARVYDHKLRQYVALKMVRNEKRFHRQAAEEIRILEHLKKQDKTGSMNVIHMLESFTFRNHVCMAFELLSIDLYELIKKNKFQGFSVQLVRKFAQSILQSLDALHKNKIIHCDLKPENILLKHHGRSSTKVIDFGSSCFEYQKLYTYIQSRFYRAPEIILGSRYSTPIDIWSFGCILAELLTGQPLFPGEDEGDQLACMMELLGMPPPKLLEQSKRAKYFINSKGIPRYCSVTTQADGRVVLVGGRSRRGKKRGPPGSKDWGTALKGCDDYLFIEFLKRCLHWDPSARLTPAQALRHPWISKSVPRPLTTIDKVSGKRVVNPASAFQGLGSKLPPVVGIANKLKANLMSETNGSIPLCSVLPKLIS
As to the kind of experiment: Inhibition of Dyrk3 (unknown origin) using Woodtide as substrate after 30 mins by P81 membrane assay in presence of [33P]-g-ATP.

Data set [4] deals with Insulin-like growth factor 1 receptor (Homo sapiens) (UniProt P08069). Briefly: Inhibition of IGF-1R (unknown origin) at 0.5 uM relative to control.
Insulin-like growth factor 1 receptor (Homo sapiens), sequence (P08069 31-736 limits assumed): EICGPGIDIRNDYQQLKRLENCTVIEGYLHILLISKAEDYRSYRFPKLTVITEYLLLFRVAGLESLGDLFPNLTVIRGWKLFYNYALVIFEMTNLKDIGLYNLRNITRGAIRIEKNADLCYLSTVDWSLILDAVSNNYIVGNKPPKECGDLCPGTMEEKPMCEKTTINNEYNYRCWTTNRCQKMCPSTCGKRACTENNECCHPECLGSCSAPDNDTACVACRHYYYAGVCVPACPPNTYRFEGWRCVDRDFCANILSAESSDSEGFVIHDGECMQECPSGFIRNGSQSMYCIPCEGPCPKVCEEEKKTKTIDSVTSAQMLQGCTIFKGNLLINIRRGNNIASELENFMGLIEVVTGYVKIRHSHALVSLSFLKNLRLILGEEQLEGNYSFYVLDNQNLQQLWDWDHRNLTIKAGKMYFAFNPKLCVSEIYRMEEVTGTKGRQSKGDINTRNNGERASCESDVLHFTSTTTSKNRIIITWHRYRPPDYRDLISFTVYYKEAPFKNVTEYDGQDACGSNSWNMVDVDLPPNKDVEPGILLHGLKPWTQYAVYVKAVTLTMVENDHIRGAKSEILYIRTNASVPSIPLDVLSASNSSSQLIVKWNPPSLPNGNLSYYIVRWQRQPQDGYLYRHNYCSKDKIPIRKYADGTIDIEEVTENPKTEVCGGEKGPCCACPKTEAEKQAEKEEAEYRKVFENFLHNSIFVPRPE
Insulin-like growth factor 1 receptor (Homo sapiens), sequence (P08069 741-1367 limits assumed): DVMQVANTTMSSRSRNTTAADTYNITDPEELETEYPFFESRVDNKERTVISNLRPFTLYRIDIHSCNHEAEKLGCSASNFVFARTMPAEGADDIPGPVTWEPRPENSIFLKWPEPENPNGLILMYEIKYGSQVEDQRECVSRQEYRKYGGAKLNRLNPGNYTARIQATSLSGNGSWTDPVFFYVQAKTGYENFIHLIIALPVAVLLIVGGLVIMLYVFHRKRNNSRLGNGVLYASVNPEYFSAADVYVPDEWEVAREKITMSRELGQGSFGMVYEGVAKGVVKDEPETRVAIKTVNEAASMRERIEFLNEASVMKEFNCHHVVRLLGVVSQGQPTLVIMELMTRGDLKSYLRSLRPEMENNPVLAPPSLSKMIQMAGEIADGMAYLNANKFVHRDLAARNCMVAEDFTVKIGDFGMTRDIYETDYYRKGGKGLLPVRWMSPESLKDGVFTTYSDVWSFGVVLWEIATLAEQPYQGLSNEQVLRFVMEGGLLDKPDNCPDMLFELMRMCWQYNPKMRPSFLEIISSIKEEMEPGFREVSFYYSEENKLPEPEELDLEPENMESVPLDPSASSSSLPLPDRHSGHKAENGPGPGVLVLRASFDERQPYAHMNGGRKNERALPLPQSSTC
Data set [5] concerns SH-SY5Y. Briefly: cells. The conditions noted are these: Homo sapiens, 24 h.

As for `Nc1nccc(-c2cn(C(=O)N3CCOCC3)c3ccc(Br)cc23)n1`, in data set [1], the viability at 24 h, 30 µM is 87%. Further, in the data set with SH-SY5Y [2], the viability at 50 µM is 86.4%. Besides, the pIC50 in data set [3] was 5.66; with SH-SY5Y [5], < 4.00. The inhibition in data set [4] turned out to be 2.1%.
